Source: patent publication US10253002B2, “Compounds and methods of treating infections” (Neoculi Pty Ltd., priority 2013, dated 2019)
Read-outs that look alike come from different tables or passages of the source.

Key:
S. pneumoniae strain D39 = test: microbe, parasite or virus in culture; type: cell-based; conditions: Streptococcus pneumoniae
Method: Macro-broth dilutions were prepared as above. […] Samples were centrifuged at a relative centrifugal force (RCF) of 101.45×g for 10 min and washed in 50 mL of phosphate buffered saline (PBS) twice to remove any residual antimicrobial, and/or bacterial end products and media. Washed bacteria were resuspended and MICs were performed.

Streptococcus pneumoniae = conditions: control strain Streptococcus pneumoniae ATCC 49619; cited from earlier work
[1] = test system: DNA synthesis in S. aureus ATCC 29213; test: Macromolecular synthesis assay: DNA synthesis ([3H] thymidine); type: cell-based, Staphylococcus aureus
Method: Cells were grown at 35° C. overnight on Trypticase Soy agar. A colony from the plate was used to inoculate 10 ml of Mueller Hinton broth II (MHBII), and the culture was grown to early exponential growth phase (OD600==0.2 to 0.3) while incubating in a shaker at 35° C. and 200 rpm.
When cells reached early exponential phase, 100 μL of culture was added to triplicate wells containing various concentrations of test compound or control antibiotics (5 μL) at 20× the final concentration in 100% DMSO. A 5% DMSO treated culture served as the “no drug” control for all experiments. Cells were added in MHBII at 105% to account for the volume of drug added to each reaction or in M9 minimal medium for protein synthesis reactions. Following 15 min incubation at room temperature, either [^3H] thymidine (DNA synthesis), [^3H] uridine (RNA synthesis) or [^3H] leucine (protein synthesis) was added at 0.5-1.0 μCi per reaction, depending on the experiment. Reactions were allowed to proceed at room temperature for 15-30 min and then stopped by adding 12 μL of cold 5% trichloroacetic acid (TCA) or 5% TCA/2% casamino acids (protein synthesis only). Reactions were incubated on ice for 30 min and the TCA precipitated material was collected on a 25 mm GF/A filter. After washing three times with 5 ml of cold 5% TCA, the filters were rinsed two times with 5 mL 100% ethanol, allowed to dry, and then counted using a Beckman LS3801 liquid scintillation counter.

[2] = test system: ATP release from S. aureus ATCC 29213; test: ATP release assay (CellTiter-Glo); type: cell-based, Staphylococcus aureus; conditions: at the MIC ([…] μg/ml); 30 min exposure
Method: The CellTiter-Glo Luminescent Cell Viability Assay (Promega) was utilized to measure the leakage of ATP from bacteria. […] The negative control received 2% DMSO, which represented the final DMSO concentration in each assay. After a 30 min exposure to drug, cells were sedimented by centrifugation and the supernatant was analyzed for the presence of ATP. Results were expressed as ATP concentration released to the medium (μM).

[3] = Precipitation of NCL812 in assay media, Examples 2 and 3; type: physicochemical
Staphylococcus aureus = test: Mouse skin wound infection model, topical treatment; type: in vivo, mice; conditions: 14 treatments
Text: Preliminary studies prior to the conduct of the current study established a new method of skin infection arising from a detailed study of the models mentioned above. Briefly, study mice are anaesthetised, a patch of dorsal skin is clipped to reveal the skin and a circular area of skin is removed with a hand held punch, leaving a wound on the dorsum with a central cavity. The wound is infected with a known number of the challenge organism. Approximately four to six hours after infection, the wound is either treated topically with a vehicle formulation or an active formulation. The infected skin wound is retreated every 12 hours for a total of 14 treatments. Mice are humanely euthanased, the area of the original infected wound is dissected and removed and its bacterial content quantified by standard microbiologic tests. In this way, the change in bacterial concentration due to treatment with the active formulation can be readily determined by examining the reduction in bacterial burden compared with the vehicle control. Fresh cultures of bacteria (Staphylococcus aureus) were grown on Sheep Blood Agar at 37° C. for 16-18 hours. A few typical colonies were selected and suspended in 10 ml of Tryptic Soy Broth and incubated overnight in a shaking incubator (240 rpm) at 37° C. The overnight suspension was vortexed and diluted (1:100) in fresh Tryptic soy broth (100 μl [0.1 ml] in 9.9 ml broth). The fresh suspension was incubated for 3 hours in a shaking incubator (as above) in order to obtain mid-logarithmic phase bacteria. Bacteria were pelleted through centrifugation at 7,500 rpm for 10 mins. Broth supernatant was removed and bacteria suspended in 10 ml Phosphate Buffered Saline (PBS). These steps were repeated a further two times. The density of the suspension was checked by measuring absorbance at 600 nm, using a spectrophotometer with saline as a blank, to confirm the target density at a reading of approximately 0.100, consistent with a bacterial density of 2.5×10^7 CFU/ml. The suspension was placed into a rack placed into a lockable transport box with an ice brick to maintain refrigeration during transport, followed by storage in cool room upon arrival at the mouse skin infection laboratory. Final suspension was mixed thoroughly before inoculating the skin wounds created in mice. […] Eyes of each anaesthetised mouse were covered with veterinary eye lubricant in order to prevent corneal dehydration. Each mouse removed from induction chamber and placed onto surgical area, in front of individual aesthetic nose cone. While under anaesthesia each mouse was monitored for assessment of depth of anaesthesia (response to pain, blink reflex, skeletal muscle tone) and respiratory and cardiac function. Back skin hair was shaved from surgical area with mechanical clippers. […] Once the iodine solution was dry, a subcutaneous injection of the nonsteroidal anti-inflammatory agent meloxicam was administered. Dorsal skin was pinched gently to allow creation of a circular full-thickness wound using ear punch/biopsy punch. […] Once the bacterial suspension was dry, mice were placed into individual recovery boxes labelled with the mouse number. The time of inoculation was recorded. Initial body weights of each mouse were recorded on the appropriate score sheet. Mice recovered to full consciousness within 5 minutes. Recovered mice were returned to individual housing and monitored hourly for post-surgical or anaesthetic complications. […] Each ointment container was weighted prior to administration and the weight recorded. Each mouse was carefully restrained. […] The weight of the ointment container post-administration was recorded. […] At the end of the 7 day skin wound assessment period, all test mice were euthanased prior to wound collection for post mortem examination. The skin wound was dissected from the dorsum of each mouse. The sample was placed in a sample tube and weighed before 1 ml PBS and sterile tissue homogenisation beads were added. […]

[4] = water containing 4% DMSO, following initial dilution in 100% DMSO; recent independent research; cited from earlier work

## CC1(C)S[C@@H]2[C@H](NC(=O)[C@H](N)c3ccccc3)C(=O)N2[C@H]1C(=O)O [Ampicillin]
S. pneumoniae strain D39; D39, 6 h, read-out: MBC of D39 following exposure to NCL-812 for 6 hrs
  MBC: 0.023 µg/mL
S. pneumoniae strain D39; D39, 6 h, read-out: MIC of D39 following exposure to NCL-812 for 6 hrs.
  MIC: 0.045 µg/mL
S. pneumoniae strain D39; D39, read-out: Original MBC of D39
  MBC: 0.023 µg/mL
S. pneumoniae strain D39; D39, read-out: Original MIC of D39
  MIC: 0.023 µg/mL
Streptococcus pneumoniae
  Acceptable MIC range for Ampicillin: 0.06 to 0.25 µg/mL

## N=C(N/N=C/c1ccc(Cl)cc1)N/N=C/c1ccc(Cl)cc1 [NCL812, 1,3-bis[(E)-(4-chlorophenyl)methyleneamino]guanidine]
[1]; 0.5 fold the MIC
  inhibition of DNA synthesis: 40%
[1]; […] the MIC
  inhibition of DNA synthesis: no inhibition
[1]; at the MIC
  inhibition of DNA synthesis: approximately 95%
[2]
  maximal ATP release: 0.33 µM
[3]; MIC plates prepared identically without inoculum, MHB II
  Precipitation of NCL812 observed at: ≥ 8 µg/mL
[3]; Mueller Hinton broth II, DNA and RNA synthesis assays
  precipitation observed at: 4 to 8 fold the MIC
Staphylococcus aureus; mice, Formulation B 20 mg/g topically every 12 hours, vehicle 6.77
  mean colony count per g of tissue, log10: 5.15 log10
Staphylococcus aureus; mice, Formulation B 20 mg/g topically every 12 hours, vehicle 5,888,436
  mean colony count per g of tissue: 141,254
Staphylococcus aureus; mouse skin wound infected with Staphylococcus aureus, topical ointment (Formulation B, 20 mg/g) every 12 hours, end of 7 day period, relative to vehicle group
  % reduction (of colony forming units per gram of tissue versus vehicle): 97.6%
Staphylococcus aureus; mouse skin wound infected with Staphylococcus aureus, topical ointment (Formulation B, 20 mg/g) every 12 hours, wound tissue at end of 7 day period, group mean
  Log10 (CFU/g): colony forming units per gram of tissue: 5.15 Log10 (CFU/g)
[4]
  solubility: complete solubility
